Source: paper PMC8493129, “Design and Synthesis of New Quinoxaline Derivatives as Potential Histone Deacetylase Inhibitors Targeting Hepatocellular Carcinoma: In Silico, In Vitro, and SAR Studies” (Frontiers in Chemistry, 2021)
Where “and” joins values, the source holds several entries; their conditions need not be identical. Identical values can stand only once.

Tests used:
HepG-2 cells [1] = assay: Cell cycle analysis by flow cytometry; assay type: cell-based, human
Method: The most compound 6 c incorporating 4-Cl benzylidene side chain was further evaluated through cell cycle analysis in HepG-2 cell line. Such a test was carried out to detect the exact phase at which cell cycle arrest takes place.

Bcl-2 = assay: Anti-apoptotic marker level (Bcl-2) in HepG-2 cells; assay type: cell-based, human; conditions: control 5.048 pg/ml
Method: (§1) The method was performed in detail as previously explained ([Eliaa et al., 2020]).

[2] = test system: HuH-7 liver cancer cell line; assay: Anti-proliferative activity (MTT / SRB assay), HuH-7; assay type: cell-based, human; conditions: for IC50: Homo sapiens, mean of three separate experiments
Method: (§2) The new quinoxaline derivatives of the five series: 6, 7, 8, 9, and 10 were evaluated for their potential anti-proliferative activity against two liver cancer cell lines (HepG-2 and HuH-7) obtained from the American Type Culture Collection.

[3] = test system: HepG-2 liver cancer cell line; assay: Anti-proliferative activity (MTT / SRB assay), HepG-2; assay type: cell-based, human; conditions: for IC50: Homo sapiens, HepG2, mean of three separate experiments
Method: as §2

HDAC4 = HDAC4 (Homo sapiens, UniProt P56524); assay: Histone deacetylase inhibition, homogeneous fluorescence release assay
HepG-2 cells [4] = assay: Annexin V-FITC apoptosis assay; assay type: cell-based, human; conditions: HepG-2, 1.53 µM
Method: It is well-known that cell death may be due to programmed apoptosis or uncontrolled necrosis. Annexin V-based flow cytometry assay as a helpful strategy to determine the exact cause of death was carried out. […] This confirms that the cytotoxic activity of compound 6 c is due to programmed apoptosis, and not to nonspecific necrosis.
The previous compound was analyzed by FACS as we previously described ([Al-Rashood et al., 2020]; [Eliaa et al., 2020]; [Eldehna et al., 2021]).

HDAC6 = biological target: T1, HDAC6 (Homo sapiens, UniProt Q9UBN7); assay: Histone deacetylase inhibition, homogeneous fluorescence release assay
T1 sequence (Q9UBN7 1-1215): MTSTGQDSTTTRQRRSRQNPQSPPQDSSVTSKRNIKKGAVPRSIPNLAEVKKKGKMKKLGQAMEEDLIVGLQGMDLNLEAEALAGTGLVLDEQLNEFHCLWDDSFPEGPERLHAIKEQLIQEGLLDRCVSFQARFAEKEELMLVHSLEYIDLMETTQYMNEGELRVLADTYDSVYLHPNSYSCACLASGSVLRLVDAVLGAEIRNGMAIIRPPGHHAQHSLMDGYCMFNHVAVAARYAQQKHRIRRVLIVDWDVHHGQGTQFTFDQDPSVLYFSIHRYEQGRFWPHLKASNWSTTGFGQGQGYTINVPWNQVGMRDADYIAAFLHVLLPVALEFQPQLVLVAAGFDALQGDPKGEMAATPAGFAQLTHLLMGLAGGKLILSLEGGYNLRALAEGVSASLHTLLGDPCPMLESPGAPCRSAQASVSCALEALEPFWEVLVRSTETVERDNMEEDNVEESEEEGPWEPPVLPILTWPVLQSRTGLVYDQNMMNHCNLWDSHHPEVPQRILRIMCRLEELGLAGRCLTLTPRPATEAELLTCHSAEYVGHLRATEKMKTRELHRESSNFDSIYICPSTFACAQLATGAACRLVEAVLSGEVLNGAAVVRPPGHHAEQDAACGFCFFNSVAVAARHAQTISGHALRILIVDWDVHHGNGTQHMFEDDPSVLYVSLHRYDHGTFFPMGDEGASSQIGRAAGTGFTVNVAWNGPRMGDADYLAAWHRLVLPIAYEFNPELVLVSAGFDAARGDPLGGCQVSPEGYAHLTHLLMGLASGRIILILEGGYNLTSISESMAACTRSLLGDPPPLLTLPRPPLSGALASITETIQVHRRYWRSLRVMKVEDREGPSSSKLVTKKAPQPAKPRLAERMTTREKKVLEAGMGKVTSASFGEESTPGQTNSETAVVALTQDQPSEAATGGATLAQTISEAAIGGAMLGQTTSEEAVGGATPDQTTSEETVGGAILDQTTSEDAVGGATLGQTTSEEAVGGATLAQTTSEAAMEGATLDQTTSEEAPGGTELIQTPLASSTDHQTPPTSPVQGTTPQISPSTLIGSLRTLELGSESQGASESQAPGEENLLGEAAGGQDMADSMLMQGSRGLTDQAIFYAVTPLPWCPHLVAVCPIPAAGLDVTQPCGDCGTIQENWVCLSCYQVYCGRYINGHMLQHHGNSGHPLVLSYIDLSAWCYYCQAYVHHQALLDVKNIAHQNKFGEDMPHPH

HDAC1 = HDAC1 (Homo sapiens, UniProt Q13547); assay: as above
Bax = assay: Apoptotic marker level (Bax) in HepG-2 cells; assay type: cell-based, human; conditions: control 24.37 pg/ml
Method: as §1

[5] = test system: HepG-2 and HuH-7 liver cancer cell lines; assay: Anti-proliferative activity, statements covering both cell lines; assay type: cell-based, human; conditions: class by IC50 on HepG-2 and HuH-7
Method: as §2

Chain of HDAC1 (Q13547 whole entry): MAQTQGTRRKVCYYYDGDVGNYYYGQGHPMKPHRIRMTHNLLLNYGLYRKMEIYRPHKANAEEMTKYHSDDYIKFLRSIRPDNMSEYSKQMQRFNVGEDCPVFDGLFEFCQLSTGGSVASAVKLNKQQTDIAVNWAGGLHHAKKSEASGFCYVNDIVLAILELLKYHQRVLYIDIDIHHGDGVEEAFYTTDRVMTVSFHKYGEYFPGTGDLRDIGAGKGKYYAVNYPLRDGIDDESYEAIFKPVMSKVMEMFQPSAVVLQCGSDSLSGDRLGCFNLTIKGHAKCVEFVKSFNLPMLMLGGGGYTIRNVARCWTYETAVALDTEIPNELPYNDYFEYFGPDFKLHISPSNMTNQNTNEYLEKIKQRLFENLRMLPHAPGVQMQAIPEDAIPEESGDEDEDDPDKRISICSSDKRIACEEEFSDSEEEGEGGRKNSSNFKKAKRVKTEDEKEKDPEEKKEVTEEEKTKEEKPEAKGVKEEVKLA
Chain of HDAC4 (P56524 whole entry): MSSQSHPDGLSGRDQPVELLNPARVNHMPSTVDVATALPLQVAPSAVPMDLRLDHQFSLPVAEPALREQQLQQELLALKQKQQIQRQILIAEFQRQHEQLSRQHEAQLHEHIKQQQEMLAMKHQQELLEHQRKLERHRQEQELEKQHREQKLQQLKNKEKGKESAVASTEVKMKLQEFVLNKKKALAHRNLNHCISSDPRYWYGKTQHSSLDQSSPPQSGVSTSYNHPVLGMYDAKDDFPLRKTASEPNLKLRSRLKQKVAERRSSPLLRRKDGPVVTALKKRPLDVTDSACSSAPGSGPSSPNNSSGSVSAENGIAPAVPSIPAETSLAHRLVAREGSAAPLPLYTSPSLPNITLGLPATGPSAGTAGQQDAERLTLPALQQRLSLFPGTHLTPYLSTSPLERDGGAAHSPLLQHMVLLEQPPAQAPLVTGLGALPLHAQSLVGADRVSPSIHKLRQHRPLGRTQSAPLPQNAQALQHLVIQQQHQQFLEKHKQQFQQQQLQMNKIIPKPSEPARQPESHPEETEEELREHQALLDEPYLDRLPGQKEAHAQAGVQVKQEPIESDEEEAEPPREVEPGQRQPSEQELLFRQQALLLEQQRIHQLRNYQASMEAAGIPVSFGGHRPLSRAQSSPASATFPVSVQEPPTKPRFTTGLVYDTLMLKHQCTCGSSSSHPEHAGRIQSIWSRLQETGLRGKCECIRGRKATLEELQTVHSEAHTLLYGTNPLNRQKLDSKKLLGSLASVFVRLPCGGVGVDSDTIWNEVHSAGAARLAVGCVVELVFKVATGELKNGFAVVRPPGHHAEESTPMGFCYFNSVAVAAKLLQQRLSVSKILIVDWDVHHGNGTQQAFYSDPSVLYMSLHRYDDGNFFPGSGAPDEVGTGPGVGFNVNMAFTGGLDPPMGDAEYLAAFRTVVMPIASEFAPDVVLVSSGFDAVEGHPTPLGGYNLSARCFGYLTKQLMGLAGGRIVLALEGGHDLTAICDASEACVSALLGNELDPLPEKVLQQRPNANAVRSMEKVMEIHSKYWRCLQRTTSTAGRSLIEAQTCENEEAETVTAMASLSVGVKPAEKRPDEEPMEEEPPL

Clc1ccc(C=NNc2nc3ccccc3nc2Cl)cc1 [Compound 6 c, 2-Chloro-3-(2-(4-chlorobenzylidene)hydrazinyl)quinoxaline]
decline in the cell population at G0/G1 phase compared to control (HepG-2 cells [1]; HepG-2, 1.53 µM): 1.23 fold | decline in the cell population at S phase compared to control (HepG-2 cells [1]; HepG-2, 1.53 µM): 1.18 fold | increase in the population of cells at the G2/M phase compared to control (HepG-2 cells [1]; HepG-2, 1.53 µM): 1.76 fold | %G2/M (HepG-2 cells [1]; HepG-2 cells treated at 1.53 µM, control 18.67%): 32.93% | %S (HepG-2 cells [1]; HepG-2 cells treated at 1.53 µM, control 35.93%): 30.32% | %G0-G1 (HepG-2 cells [1]; HepG-2 cells treated at 1.53 µM, control 45.40%): 36.75% | Bcl-2 (Bcl-2): 1.27 pg/mL and 1.278 pg/mL | IC50 [2]: 3.06 µM | IC50 ([3]; HepG-2): 1.53 µM | IC50 (HDAC4): 1390 nM | increase in apoptosis percentage compared to the control, early phase (HepG-2 cells [4]): 9.98 fold | increase in apoptosis percentage compared to the control, late phase (HepG-2 cells [4]): 10.81 fold | AnxV-FITC apoptotic cells percentage, late apoptosis (HepG-2 cells [4]; control 0.53%): 5.73% | AnxV-FITC apoptotic cells percentage, early apoptosis (HepG-2 cells [4]; control 0.62%): 6.19% | IC50 (HDAC6): 3.46 µM | IC50 (HDAC1): 1760 nM | Bax (Bax): 274.3 pg/mL

CC(=NNc1nc2ccccc2nc1Cl)c1ccccc1O [Compound 7 b, 2-(1-(2-(3-Chloroquinoxalin-2-yl)hydrazono)ethyl)phenol]
Bcl-2 (Bcl-2): 2.371 pg/mL | IC50 [2]: 6.19 µM | IC50 ([3]; HepG-2): 4.03 µM | cytotoxic (anti-proliferative) activity class [5]: very strong (1–10 (very strong)) | IC50 (HDAC4): 2510 nM | IC50 (HDAC6): 5.24 µM | IC50 (HDAC1): 2670 nM | Bax (Bax): 217.9 pg/mL

Oc1ccc2ccccc2c1C=NNc1nc2ccccc2nc1Cl [Compound 8, 1-((2-(3-Chloroquinoxalin-2-yl)hydrazono)methyl)naphthalen-2-ol]
Bcl-2 (Bcl-2): 1.839 pg/mL | IC50 [2]: 6.14 µM | fold increase in activity versus corresponding member 11, HuH-7 ([2]; ratio of IC50 values): 3.30 fold | IC50 ([3]; HepG-2): 3.88 µM | fold increase in activity versus corresponding member 11, HepG-2 ([3]; ratio of IC50 values, HepG-2): 4.76 fold | fold more active than compound 9 ([3]; ratio of IC50 values, stated for the two cell lines, figure fits HepG-2): 2.98 fold | cytotoxic (anti-proliferative) activity class [5]: very strong (1–10 (very strong)) | IC50 (HDAC4): 2090 nM | IC50 (HDAC6): 4.37 µM | IC50 (HDAC1): 1720 nM | Bax (Bax): 233.6 pg/mL

COc1nc2ccccc2nc1N/N=C1/C(=O)Nc2ccccc21 [Compound 12]
Bcl-2 (Bcl-2): 1.571 pg/mL | IC50 [2]: 3.08 µM | fold increase in activity versus corresponding member 9, HuH-7 ([2]; ratio of IC50 values): 5.33 fold | IC50 ([3]; HepG-2): 1.99 µM | fold increase in activity versus corresponding member 9, HepG-2 ([3]; ratio of IC50 values, HepG-2): 5.81 fold | cytotoxic (anti-proliferative) activity class [5]: very strong (1–10 (very strong)) | IC50 (HDAC4): 1720 nM | IC50 (HDAC6): 3.62 µM | IC50 (HDAC1): 2010 nM | Bax (Bax): 257.9 pg/mL
